Drawing on BindingDB's records for doi:10.1074/jbc.M809633200 (United States Army Medical Research Institute of Infectious …, 2009), this text covers IC50 for three molecules.

In the assay the target is T1, Receptor-type tyrosine-protein phosphatase C (Homo sapiens, UniProt P08575).
T1 sequence (P08575 whole entry): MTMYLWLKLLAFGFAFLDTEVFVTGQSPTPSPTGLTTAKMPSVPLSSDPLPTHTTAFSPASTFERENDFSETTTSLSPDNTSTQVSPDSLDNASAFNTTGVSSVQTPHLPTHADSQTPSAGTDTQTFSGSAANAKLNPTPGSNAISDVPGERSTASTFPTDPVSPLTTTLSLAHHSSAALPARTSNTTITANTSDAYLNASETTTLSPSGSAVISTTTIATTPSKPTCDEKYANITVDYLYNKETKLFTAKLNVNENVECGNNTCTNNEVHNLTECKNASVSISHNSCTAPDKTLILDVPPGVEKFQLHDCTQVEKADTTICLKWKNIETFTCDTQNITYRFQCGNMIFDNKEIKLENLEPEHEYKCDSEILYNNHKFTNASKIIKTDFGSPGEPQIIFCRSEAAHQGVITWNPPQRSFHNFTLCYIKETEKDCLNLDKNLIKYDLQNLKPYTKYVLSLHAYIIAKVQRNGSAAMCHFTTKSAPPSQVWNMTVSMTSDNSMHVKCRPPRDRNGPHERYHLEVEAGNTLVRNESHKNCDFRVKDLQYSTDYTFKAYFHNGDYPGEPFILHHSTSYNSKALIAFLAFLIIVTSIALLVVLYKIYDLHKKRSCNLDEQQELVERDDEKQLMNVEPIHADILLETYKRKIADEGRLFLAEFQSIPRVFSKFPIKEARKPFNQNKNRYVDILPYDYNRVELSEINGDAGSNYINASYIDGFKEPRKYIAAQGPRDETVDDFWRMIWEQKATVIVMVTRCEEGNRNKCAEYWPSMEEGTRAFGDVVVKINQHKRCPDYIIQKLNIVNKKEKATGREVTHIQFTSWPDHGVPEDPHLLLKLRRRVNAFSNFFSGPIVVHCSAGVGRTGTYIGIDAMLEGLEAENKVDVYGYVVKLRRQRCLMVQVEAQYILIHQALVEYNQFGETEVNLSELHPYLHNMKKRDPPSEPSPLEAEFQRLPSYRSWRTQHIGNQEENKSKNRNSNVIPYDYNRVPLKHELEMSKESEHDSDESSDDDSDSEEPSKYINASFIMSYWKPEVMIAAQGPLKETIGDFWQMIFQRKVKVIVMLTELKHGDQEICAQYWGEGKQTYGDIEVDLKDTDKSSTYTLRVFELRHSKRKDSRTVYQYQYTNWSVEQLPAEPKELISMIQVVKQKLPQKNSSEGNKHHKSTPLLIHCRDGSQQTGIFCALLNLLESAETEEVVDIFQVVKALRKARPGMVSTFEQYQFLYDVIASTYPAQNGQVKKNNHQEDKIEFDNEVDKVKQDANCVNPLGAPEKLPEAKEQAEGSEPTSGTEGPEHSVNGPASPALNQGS
Kind of assay: Phosphatase Activity Assay. From the text:
Protein phosphatases were purchased from Upstate Biotechnology (Lake Placid, NY).

Structures are written as SMILES.

For orientation: IC50 means the concentration that inhibits the measured activity by half. The molecule `O=C1C(=O)c2cccc([N+](=O)[O-])c2-c2ccccc21` [4-Nitro-phenanthrene-9,10 dione] returned an IC50 of 6000 nM. `O=C1C(=O)c2ccccc2-c2ccccc21` displayed an IC50 of 300 nM.

Consider `CC(C)(C)C(=O)Nc1ccc2c(c1)C(=O)C(=O)c1ccccc1-2` [N-(9,10-Dioxo-9,10-dihydro-phenanthrene-2-yl)-2,2-dimethyl-propionamide], for which the IC50 was 400 nM.
